Source: US20140377219A1, “HIV INHIBITORS” (New york Blood Center, Inc., priority 2011, published 2014)
Like-named read-outs stand apart in the source and are kept apart here.

Assays:
CD4 = CD4 (Homo sapiens, UniProt P01730); test: Surface plasmon resonance (SPR), ligand CD4; assay type: binding
gp120 = gp120 (Human immunodeficiency virus type 1 group M subtype B, UniProt P03375); test: biochemical; assay type: binding, HIV-1
HIV-1MN gp120 and sCD4 = target: T1, HIV-1MN gp120 and sCD4 (Human immunodeficiency virus type 1 group M subtype B, UniProt P05877); test: biochemical; assay type: binding; details: read-out: IC50 (μM ± SD), interaction HIV-1MN gp120 and sCD4
T1 construct: recombinant gp120 from HIV-1IIIB and HIV-1MN
Description: (§1) The compounds were incubated at graded concentrations with sCD4 (0.25 μg/ml) in the wells of polystyrene plates containing recombinant gp120, which was captured by coating the plates with a sheep anti-gp120 antibody D7324.

HIV-1IIIB gp120 and sCD4 = target: T2, HIV-1IIIB gp120 and sCD4 (Human immunodeficiency virus type 1 group M subtype B, UniProt P03375); test: biochemical; assay type: binding; details: read-out: IC50 (μM ± SD), interaction HIV-1IIIB gp120 and sCD4
T2 construct: recombinant gp120 from HIV-1IIIB and HIV-1MN
Description: as §1

[1] = tested on: primary HIV-1 isolate 92US657 (subtype B, R5); test: Neutralization assay in PBMC (p24 ELISA); details: read-out: IC50 (μM) ± S.D., inhibitory activity on infection
Description: (§3) PBMCs were isolated from the blood of healthy donors at the New York Blood Center by standard density-gradient centrifugation using Histopaque-1077 (Sigma-Aldrich). The cells were cultured at 37° C. for 2 h. Non-adherent cells were collected and resuspended at 5×10^6 cells/ml in RPMI-1640 medium containing 10% (v/v) fetal bovine serum, 5 μg/ml of phytohemagglutinin, and 100 U/ml of IL-2 (Sigma-Aldrich), followed by incubation at 37° C. for three days.

HIV-1 SF2 = test: Multi-cycle neutralization assay in MT-2 cells
HIV-1 SF162 = test: Neutralization assay in PBMC (p24 ELISA); details: read-out: IC50 (μM) ± S.D., inhibitory activity on infection
Description: as §3

HIV-1 RF = test: Multi-cycle neutralization assay in MT-2 cells
[2] = tested on: primary HIV-1 isolate BCF02 (Group 0, R5); test: Neutralization assay in PBMC (p24 ELISA); details: read-out: IC50 (μM) ± S.D., inhibitory activity on infection
Description: (§4) The inhibitory activity of small molecules on infection by primary HIV-1 isolates was determined. PBMCs were isolated from the blood of healthy donors at the New York Blood Center by standard density-gradient centrifugation using Histopaque-1077 (Sigma-Aldrich). The cells were cultured at 37° C. for 2 h. Non-adherent cells were collected and resuspended at 5×10^6 cells/ml in RPMI-1640 medium containing 10% (v/v) fetal bovine serum, 5 μg/ml of phytohemagglutinin, and 100 U/ml of IL-2 (Sigma-Aldrich), followed by incubation at 37° C. for three days.

HIV-1 BaL = test: Neutralization assay in PBMC (p24 ELISA)
Description: as §3

[3] = tested on: AZT-resistant (AZT-R) HIV-1 strain; test: Multi-cycle neutralization assay in MT-2 cells
[4] = tested on: primary HIV-1 isolate 93TH060 (subtype E, R5); test: Neutralization assay in PBMC (p24 ELISA); details: read-out: IC50 (μM) ± S.D., inhibitory activity on infection
Description: as §4

[5] = tested on: HIV-1 RF/L-323-12-3 (protease resistant isolate); test: Multi-cycle neutralization assay in MT-2 cells
[6] = Cytotoxicity in MT-2 cells (XTT); assay type: cell-based; details: human; MT-2 cells, XTT, four days
Description: (§2) Cytotoxicity of small molecules in MT-2 cells and PBMC was measured by the XTT ((sodium 3′-(1-(phenylamino)-carbonyl)-3,4-tetrazolium-bis(4-methoxy-6-nitro)benzene-sulfonic acid hydrate)) method. Briefly, for MT-2 cells, 100 μl of a small molecule at graded concentrations was added to an equal volume of cells (10^5 cells/ml) in 96-well plates followed by incubation at 37° C. for four days, which ran parallel with the neutralization assay in MT-2 (except medium was added instead of virus). In the case of PBMC, 5×10^5 cells/ml was used and the cytotoxicity was measured after seven days. […] The percentage cytotoxicity and the CC50 values were calculated as described above.

HIV-1 89.6 = test: Neutralization assay in PBMC (p24 ELISA); details: read-out: IC50 (μM) ± S.D., inhibitory activity on infection
Description: as §4

HIV-1 MN = test: Multi-cycle neutralization assay in MT-2 cells
Description: (§5) In brief, 1×10^4 MT-2 cells were infected with HIV-1 at 100 TCID50 (50% tissue culture infective dose) (0.01MOI) in 200 μl medium in the presence or absence of small molecules at graded concentrations and incubated overnight. The culture supernatants were then removed and replaced with fresh media. On the fourth day post-infection, 100 μl of culture supernatants were collected from each well, mixed with equal volume of 5% Triton X-100 and tested for p24 antigen by sandwich-ELISA. The percent inhibition of p24 production and IC50 values were calculated by the GraphPad Prism software (GraphPad Software Inc.).

[7] = tested on: primary HIV-1 isolate 93IN101 (subtype C, R5); test: Neutralization assay in PBMC (p24 ELISA); details: read-out: IC50 (μM) ± S.D., inhibitory activity on infection
Description: as §4

[8] = tested on: primary HIV-1 isolate 92UG031 (subtype A, R5); test: Neutralization assay in PBMC (p24 ELISA); details: read-out: IC50 (μM) ± S.D., inhibitory activity on infection
Description: as §4

[9] = tested on: primary HIV-1 isolate 93BR029 (clade F, R5); test: Neutralization assay in PBMC (p24 ELISA); details: read-out: IC50 (μM) ± S.D., inhibitory activity on infection
Description: as §3

[10] = tested on: laboratory-adapted HIV-1 IIIB strain; test: microbe, parasite or virus in culture; details: Human immunodeficiency virus 1, IIIB, MT2, read-out: IC50 (μM) ± S.D., inhibitory activity on infection
Description: as §5

[11] = tested on: primary HIV-1 isolate RU570 (clade G, R5); test: Neutralization assay in PBMC (p24 ELISA); details: read-out: IC50 (μM) ± S.D., inhibitory activity on infection
Description: as §3

PBMC = test: Cytotoxicity in PBMC (XTT); assay type: cell-based; details: for % toxicity at that dose (number in parenthesis), PBMC: at the dose given as CC50 bound; for CC50: PBMC, XTT, seven days, read-out: PBMC CC50
Description: as §2

[12] = Cytotoxicity in PBMC (XTT); assay type: cell-based; details: human; PBMC, XTT, seven days
Description: as §2

MT-2 cells = test: Cytotoxicity in MT-2 cells (XTT); assay type: cell-based; details: for CC50: MT-2 cells, XTT, four days, read-out: MT-2 Cells CC50
Description: as §2

[13] = tested on: laboratory-adapted HIV-1 IIIB strain
Description: as §5

TZM-bl cells = test: Cytotoxicity in TZM-bl cells (XTT); assay type: cell-based
Description: The cytotoxicity of small molecules in TZM-bl cells was measured by a colorimetric method using XTT (sodium 3′-(1-(phenylamino)-carbonyl)-3,4-tetrazolium-bis(4-methoxy-6-nitro)benzenesulfonic acid hydrate), a light yellowish tetrazolium dye. Briefly, 100 μl of a compound at graded concentrations was added to equal volume of cells (10^5/ml) in wells of 96-well plates followed by incubation at 37° C. for 3 days and addition of XTT (PolySciences, Inc., Warrington, Pa.).

[14] = tested on: pNL4-3 gp41 (36G) V38E, N42S (fusion resistant isolate); assay type: cell-based, HIV-1; details: subtype B, MT-2, X4, fusion resistant isolate, read-out: IC50 (μM) ± S.D., inhibitory activity on infection
[15] = tested on: CD4-dependent virus (ADA); assay type: cell-based; details: ADA in Cf2Th-CD4+-CCR5+ target cells, FIG. 5; read-out: IC50, inhibition of the CD4-dependent virus
[16] = captured ELISA, sCD4 0.25 μg/ml
[17] = Human immunodeficiency virus 1, PBMC
[18] = Human immunodeficiency virus 1, MT2, read-out: IC50 (μM) ± S.D., inhibitory activity on infection
[19] = at the dose given as CC50 bound

## CN1C(=O)[C@@H](c2cc(Cl)c(O)c(Cl)c2)NC(=O)[C@@H]2NC(=O)[C@@H](c3cc(Cl)c(O)c(Cl)c3)NC(=O)[C@H](NC(=O)C(=O)c3cc(Cl)c(O)c(Cl)c3)Cc3c[nH]c4c(cccc34)-c3cc2cc(c3O)Oc2ccc(cc2)C[C@H]1C(=O)N[C@@H](C(=O)O)c1ccc(O)cc1 [Chloropeptin]
CD4
  Kd: 5.4 µM
CD4; SPR, ligand CD4
  Rmax (RU): 76.8 RU
CD4; read-out: Koff (s − 1)
  koff: 0.018 s⁻¹
gp120; SPR, ligand gp120
  Kd: 2.5 µM
  Rmax (RU): 1160 RU
  koff: 0.011 s⁻¹
HIV-1MN gp120 and sCD4; [16]
  IC50: 0.31 ± 0.2 µM
HIV-1IIIB gp120 and sCD4; [16]
  IC50: 0.31 µM

## Cc1nc(C(NC(=O)C(=O)Nc2ccc(Cl)c(F)c2)C2CCCCN2)sc1CO (stereo not shown) [Compound 27, N^1-(4-chloro-3-fluorophenyl)-N^2-((5-(hydroxymethyl)-4-methylthiazol-2-yl)(piperidin-2-yl)methyl)oxalamide.2HCl]
[1]; [17]
  IC50: 12.5 ± 2.4 µM
HIV-1 SF2; [18]
  IC50: 35.7 ± 2.6 µM
HIV-1 SF162; [17]
  IC50: 16.3 ± 1.7 µM
HIV-1 RF; [18]
  IC50: 13.8 ± 2.3 µM
[2]; [17]
  IC50: ~84 µM
HIV-1 BaL; Human immunodeficiency virus 1, BAL, read-out: IC50 (μM) ± S.D., inhibitory activity on infection
  IC50: 43.8 ± 5 µM
[3]; [18]
  IC50: 6.5 ± 0.9 µM
[4]; [17]
  IC50: 11 ± 0.5 µM
[5]; [18]
  IC50: 6.2 ± 0.9 µM
[6]
  CC50 at 4 days: ~83 µM
HIV-1 89.6; [17]
  IC50: 3.2 ± 0.7 µM
HIV-1 MN; [18]
  IC50: 18.5 ± 1.8 µM
[7]; [17]
  IC50: ~84 µM
[8]; [17]
  IC50: 10.7 ± 0.3 µM
[9]; [17]
  IC50: 9.9 ± 0.8 µM
[10]
  IC50: 4.1 ± 0.7 µM
[11]; [17]
  IC50: 15.3 ± 1.7 µM
PBMC
  % toxicity at that dose (number in parenthesis), PBMC: (40%)
[12]
  CC50 at 7 days: > 104 µM

## Cc1ccc(NC(=O)C(=O)NC(c2nc(C)c(CCO)s2)C2CCCCN2)cc1F.Cl (stereo not shown) [Compound 38, N^1-(3-fluoro-4-methylphenyl)-N^2-((5-(2-hydroxyethyl)-4-methylthiazol-2-yl)(piperidin-2-yl)methyl)oxalamide.HCl]
[1]; 92US657, subtype B, PBMC, R5, primary isolate
  IC50: 6.8 ± 0.7 µM
HIV-1 SF2; read-out: IC50 (μM) ± S.D., inhibitory activity on infection, SF2, subtype B, MT-2, R5X4, laboratory strain
  IC50: 27.6 ± 1.7 µM
HIV-1 SF162; SF162, subtype B, PBMC, R5, laboratory strain
  IC50: 16.5 ± 4 µM
HIV-1 RF; read-out: IC50 (μM) ± S.D., inhibitory activity on infection, RF, subtype B, MT-2, R5X4, laboratory strain
  IC50: 12.4 ± 1.4 µM
[2]; BCF02, Group 0, PBMC, R5, primary isolate
  IC50: ~87 µM
HIV-1 BaL; read-out: IC50 (μM) ± S.D., inhibitory activity on infection, BaL, subtype B, R5, laboratory strain
  IC50: 30.3 ± 1.4 µM
[3]; read-out: IC50 (μM) ± S.D., inhibitory activity on infection, AZT-R, subtype B, MT-2, X4, RT-resistant isolate
  IC50: 14.5 ± 1.5 µM
[4]; 93TH060, subtype E, PBMC, R5, primary isolate
  IC50: 14.7 ± 0.7 µM
[5]; read-out: IC50 (μM) ± S.D., inhibitory activity on infection, HIV-1 RF/L-323-12-3, subtype B, MT-2, X4, protease resistant isolate
  IC50: 10.2 ± 0.4 µM
MT-2 cells; listed as NBD-110017
  CC50: > 87 µM
MT-2 cells
  CC50: ~85 µM
MT-2 cells; [19]
  % toxicity at that dose (number in parenthesis), MT-2 cells: 30%
[13]; read-out: IC50 (μM) ± S.D., inhibitory activity on infection, IIIB, subtype B, MT-2, X4, laboratory strain
  IC50: 5.3 ± 1.7 µM
[13]; read-out: MT-2 Cells IC50 (μM ± SD), multi-cycle assay, MT-2 cells, HIV-1 IIIB
  IC50: 3.7 ± 0.7 µM
HIV-1 89.6; 89.6, subtype B, PBMC, R5X4, laboratory strain
  IC50: 14.7 ± 1.1 µM
TZM-bl cells; TZM-bl cells, XTT, 3 days, read-out: TZM-bl cells CC50 (μM ± SD)
  CC50: > 85 µM
TZM-bl cells; [19]
  % toxicity at that dose (number in parenthesis), TZM-bl cells: 40%
HIV-1 MN; read-out: IC50 (μM) ± S.D., inhibitory activity on infection, MN, subtype B, MT-2, X4, laboratory strain
  IC50: 14.9 ± 2.6 µM
[7]; 93IN101, subtype C, PBMC, R5, primary isolate
  IC50: > 87 µM
[8]; 92UG031, subtype A, PBMC, R5, primary isolate
  IC50: 10.1 ± 1.8 µM
[9]; 93BR029, subtype F, PBMC, R5, primary isolate
  IC50: 8.6 ± 0.4 µM
[11]; RU570, subtype G, PBMC, R5, primary isolate
  IC50: 15.8 ± 0.9 µM
[14]
  IC50: 8.4 ± 0.4 µM
PBMC
  CC50: > 64 µM
  % toxicity at that dose (number in parenthesis), PBMC: 0%

## CC1(C)CC(NC(=O)C(=O)Nc2ccc(Br)cc2)CC(C)(C)N1 [NBD-557]
CD4; SPR
  binding to CD4: not to CD4
gp120
  Kd: 42 µM
  Koff (s − 1): 4.7 × 10−2 s − 1
  Rmax (RU): 1.48 RU
HIV-1MN gp120 and sCD4
  IC50: 4.21 ± 1.1 µM
HIV-1IIIB gp120 and sCD4
  IC50: 3.08 ± 0.6 µM
[15]
  IC50: 13.4 µM
MT-2 cells
  CC50: 223 µM
PBMC
  CC50: 603 µM
